From US10071960B1, “Enaminone-grafted trithiocarbonate with anticancer and antimicrobial activity” (KING SAUD UNIVERSITY, priority 2017, dated 2018)
≈ marks a conversion by molar mass, not a printed value.

Experiments:
[1] = tested on: MDA-MB-231 Breast Cancer cells; test: MTT antiproliferative assay, MDA-MB-231; type: cell-based; settings: Homo sapiens, MDA-MB-231 cells, 48 hours
Procedure: (§1) HepG2 (human hepatocarcinoma), LoVo (human colorectal adenocarcinoma) and MDA-MB-231 (human breast cancer) cancer cell lines were selected for the in vitro antiproliferative activity. Cells were seeded in 24-well plates at a density of 50,000 cells/well for 24 hours for adherent. After 24 hours, cells were treated with increasing concentrations of compound 3 or an equal volume of vehicle (DMSO) as a control and were incubated for 48 hours. 100 μL of MTT reagent (5 mg/ml) were added. The plates were incubated for 2 hours and absorbance was determined at 540 nm in an ELISA plate reader (Thermo, USA). Percentages of cell survival were calculated as follows: % cell survival=(absorbance of treated cells/absorbance of cells with vehicle solvent)×100. The 50% inhibitory concentration (IC50) was calculated from the dose-response curve obtained by plotting the percentage of cell survival versus the concentration of compound 3.

LoVo Colon cancer cells [2] = test: LDH release cytotoxicity assay, LoVo; type: cell-based, human; settings: treated with IC50 for 48 hours; FIGS. 7 and 8A-8F
Procedure: Lactate dehydrogenase (LDH) assay was performed to assess the LDH release into the media following compound 3 treatments (IC50) on HepG2, LoVo and MDA-MB-231 cells after 48 hours of incubation. LDH cytotoxicity assay was carried out using an in vitro toxicology assay kit (Sigma Aldrich Inc., USA), according to protocol in the user's manual. The amount of LDH released in culture media was measured at 490 nm using an ELISA plate reader (Thermo, USA).

HepG2 Liver cancer cells = test: MTT antiproliferative assay, HepG2; type: cell-based; settings: Homo sapiens, 48 hours
Procedure: as §1

[3] = tested on: Brevibacillus laterosporus Wild strain; test: In vitro antimicrobial activity (MIC, MBC); type: cell-based; settings: FIGS. 4 and 5
Procedure: (§2) Biological activity of compound 3 as antimicrobial agents was performed according to (Lam et al. 2016). Lyophilized cultures of Streptococcus nutans ATCC 35668, Bacillus subtilis and Brevibacillus laterosporus Wild strains (Gram positive bacteria), Salmonella typhi Wild strain (Gram negative bacteria), Candid albicans ATCC 60193 (yeast), Cryptococcus neoformans Wild strain (yeast), Aspergillus fumigatus AUMC 8794 (mold), and Penicillium chrysogenum AUMC (mold) were grown aerobically on the appropriate medium and in incubating conditions before minimal inhibitory, minimal Bactericidal, and minimal fungicidal concentration testing (MIC, MBC, and MFC). […]
(§3) The total count of microbes was counted by measurement of bacterial and yeast cells; and spores of mold using hemocytometer and account at 400×.
(§4) The bacterial suspensions were prepared from bacterial cultures which gave an optical density reading of ˜0.9 at 620 nm. […]
(§5) To determine MIC of the compound 3, a Mueller-Hinton broth and Potato dextrose broth were used for bacteria and fungi, respectively. […] After incubation, the microbial growth was detected in the wells by p-iodonitrotetrazolium violet (Sigma, USA) reagent. […] Data are expressed as mean±s.d. of the biological replicates and statistically analyzed using One-Way ANOVA analysis using Tukey test (P<0.05) (SPSS, 13.0).

Bacillus subtilis = test: In vitro antimicrobial activity (MIC, MBC); type: cell-based; settings: FIGS. 4 and 5
Procedure: as §2, §3, §4, §5

[4] = tested on: Candida albicans ATCC 60193; test: In vitro antimicrobial activity (MIC, MFC); type: cell-based; settings: C. albicans; FIGS. 4 and 5
Procedure: as §2, §3, §4, §5

[5] = tested on: Cryptococcus neoformans Wild strain; test: In vitro antimicrobial activity (MIC, MFC); type: cell-based; settings: Cr. neformans; FIGS. 4 and 5
Procedure: as §2, §3, §4, §5

LoVo Colon cancer cells [6] = test: MTT antiproliferative assay, LoVo; type: cell-based; settings: Homo sapiens, 48 hours
Procedure: as §1

[7] = tested on: Hepg2, LoVo, and MDA-MB-231 cell lines; test: MTT growth inhibition, all three tested human tumor cells; type: cell-based; settings: 48 hours, read-out: IC50 concentrations, range over all three tested human tumor cells
Procedure: as §1

Question: What does the source list for `CCOC(=O)C(=CN(C)C)SC(=S)SC(=CN(C)C)C(=O)OCC` (stereo in doubt) [compound 3, (Z)-ethyl 3-(dimethylamino)-2-(((((Z)-1-(dimethylamino)-3-ethoxy-3-oxoprop-1-en-2-yl)thio)carbonothioyl)thio)acrylate]?
Answer: IC50 [1]: 45 µg/mL (≈ 115 µM); cytotoxic effects (LDH release, morphology) compared between tumor cell lines (LoVo Colon cancer cells [2]): more active; IC50 (HepG2 Liver cancer cells): 38 µg/mL (≈ 96.8 µM); MIC, MBC and MFC: susceptibility compared to other tested microorganisms [3]: resistant; MIC, MBC and MFC: susceptibility compared to other tested microorganisms (Bacillus subtilis): resistant; MIC, MBC and MFC: susceptibility compared to other tested microbes [4]: more susceptible; MIC, MBC and MFC: susceptibility compared to other tested microbes [5]: more susceptible; IC50 (LoVo Colon cancer cells [6]): 37.5 µg/mL (≈ 95.5 µM); IC50 [7]: 37.5 to 45 µg/mL (≈ 95.5 to 115 µM)
